One data set concerns S. typhimurium (DA6192). Kind of data set: Minimum inhibitory concentration, broth microdilution. Type of data set: cell-based. As to conditions: 24 h at 37° C. The procedure: (§1) Minimum Inhibitory Concentrations assay. Minimum inhibitory concentrations (MICs) were determined by broth microdilution on P. aeruginosa, E. coli, S. aureus, M. luteus, B. subtilis, S. typhimurium and K. pneumoniae according to the Clinical and Laboratory Standards Institute. Typically, 100 μL of 0.5-1×10^6 CFU per ml of each bacterium in Mueller Hinton media broth (Oxoid) were incubated in 96-well microtiter plates with 100 μL of serial two-fold dilutions of the corresponding antimicrobial agent (from 100 to 0 μM) at 37° C. on a 3D orbital shaker. The absorbance was measured after the addition of NI01, its derivatives or an antibiotic at 600 nm using a SpectraMax i3× Multi-Mode Microplate Reader (Molecular Devices). MICs were defined as the lowest protein concentration that inhibited visible bacterial growth after 24 h at 37° C.
In general terms: Broth dilution looks for growth in wells or tubes with falling amounts of substance.

The test system of another data set is E. coli (ATCC 15597). Nature of the data set: microbe, parasite or virus in culture. Type of data set: cell-based. The procedure:
as §1

A further data set has as its system M. luteus (ATCC 49732). Kind of data set: microbe, parasite or virus in culture. Type of data set: cell-based. How it is done: as §1
The next data set relates to S. aureus (ATCC 6538). Nature of the data set: microbe, parasite or virus in culture. Type of data set: cell-based. The settings on record: for antibacterial activity in words: S. aureus, summary of MICs. The procedure: as §1
Data set [1] has as its system K. pneumoniae (NCTC 5055). Nature of the data set: microbe, parasite or virus in culture. Type of data set: cell-based. How it is done: as §1
The subject of data set [2] is P. aeruginosa (ATCC 27853). Nature of the data set: microbe, parasite or virus in culture. Type of data set: cell-based. As to conditions: for antibacterial activity in words: P. aeruginosa, summary of MICs. How it is done:
as §1

Another data set relates to B. subtilis (ATCC 6633). Nature of the data set: microbe, parasite or virus in culture. Type of data set: cell-based. How it is done: as §1
The test system of the next data set is mammalian cells lines. As to conditions: cited from earlier work.
Another data set can be described thus: Hemolysis assay. The settings on record: human, human erythrocytes, 10% (vol/vol) suspension, pH 7.2. Type of data set: cell-based, human. The procedure: (§2) Hemolysis assay. Hemolysis was determined using human erythrocytes sourced commercially from Cambridge Bioscience Ltd. and used within two days. 10% (vol/vol) suspensions of human erythrocytes were incubated with NI01, its derivatives or antibiotics. The cells were rinsed four times in 10 mM phosphate buffer saline (PBS, GibcoTM), pH 7.2, by repeated centrifugation and re-suspension (3 min at 3000×g). The cells were then incubated at room temperature for 1 h in either deionized water (fully hemolysed control), PBS, or with a corresponding antimicrobial agent in PBS. After centrifugation at 10,000×g for 5 min, the supernatant was separated from the pellet, and the absorbance was measured at 550 nm using a SpectraMax i3× Multi-Mode Microplate Reader (Molecular Devices). Absorbance of the suspension treated with deionized water defined complete hemolysis. The values given in Table S2 correspond to concentrations needed to lyse half of the sample population (50% lysis of erythrocytes) and are expressed as median hemolytic doses—HD50.

Another data set has as its system Human erythrocytes. Nature of the data set: Hemolysis assay. Type of data set: cell-based. How it is done: as §2
A short description of data set [3]: In-liquid AFM imaging of SLBs mimicking bacterial membranes. The settings on record: 0.25 μM. The text has this:
Lipid Vesicle Preparation. 1-palmitoyl-2-oleoyl-glycero-3-phosphocholine (POPC) with 1-palmitoyl-2-oleoyl-sn-glycero-3-phospho-(1′-rac-glycerol) (POPG) lipids used for vesicle construction were from Avanti Polar Lipids (Alabaster, USA). POPC was used as mammalian model membranes, and POPC/POPG (3:1, molar ratios) was used as bacterial model membranes. The lipids were weighted up, dissolved in chloroform-methanol (2:1, vol/vol), and dried under a nitrogen stream to form a thin film. The film was hydrated in 10 mM phosphate buffer (pH 7.4), vortexed for 2 min and bath sonicated for 30 min. The obtained suspension was extruded using a hand-held extruder (Avanti Polar lipids) (29 times, polycarbonate filter, 0.05 μm) to give a clear solution of small unilamellar vesicles, which were analysed (50 nm) by photon correlation spectroscopy (ZEN3600; Malvern Instruments, UK) following the re-suspension of vesicles to a final concentration of 1 mg/mL. Dynamic light scattering batch measurements were carried out in a low volume disposable cuvette at 25° C. Hydrodynamic radii were obtained through the fitting of autocorrelation data using the manufacturer's Dispersion Technology Software (version 5.10).
Preparation of SLBs for in-liquid AFM imaging. SLBs were formed using a vesicle fusion method as described elsewhere.^19 Freshly prepared vesicles (1.5 μL, 3 mg/mL) were added to cleaved mica that was pre-hydrated in 20 mM MOPS, 120 mM NaCl, 20 mM MgCl2 (pH 7.4).
After incubation over 45 min, the samples were washed 10 times with imaging buffer (20 mM MOPS, with 120 mM NaCl, pH 7.4) to remove unfused vesicles. The resulting SLBs were checked to confirm they were defect free. Mica discs (Agar Scientific, Stansted, UK) were glued to a metal puck, and freshly cleaved prior to lipid deposition.
In-liquid AFM imaging of SLBs. The topographic imaging of SLBs in aqueous buffers was performed on a Multimode 8 AFM system (Bruker AXS, USA) using Peak Force Tapping™ mode and MSNL-E cantilevers (Bruker AFM probes, USA). Images were taken at the PeakForce frequency of 2 kHz, PeakForce amplitude of 10-20 nm and PeakForce set-point of 10-30 mV (<100 pN). The images were then processed using Gwyddion (http://gwyddion.net) for line-by-line background subtraction (flattening) and plane fitting. NI01 or its derivatives were introduced into a 100-μL fluid cell (Bruker AXS, USA) to the final concentrations stated.

Data set [4] is described as follows: Thermal unfolding by CD spectroscopy. Type of data set: physicochemical. As to conditions: 20 μM protein, pH 7.4, 10 mM phosphate buffer. How it is done: Circular Dichroism Spectroscopy. Aqueous peptide solutions (300 μL, at a given concentration) were prepared in filtered (0.22 μm), 10 mM phosphate buffer, pH 7.4. CD spectra recorded in the presence of synthetic membranes are for L/P molar ratio of 100. All CD spectra were recorded on a JASCO J-810 spectropolarimeter fitted with a Peltier temperature controller. All measurements were taken in ellipticities in mdeg and converted to molar ellipticities by normalizing for the concentration of peptide bonds and cuvette path length ([θ], deg cm2 dmol−1 res−1). The data collected with a 1 nm step and 1 s collection time per step are presented as the average of 4 scans. Thermal denaturation curves were recorded with 2° C. intervals using 1 nm bandwidth, 180 s equilibration time for each spectrum and with 2° C./min ramp rate.

Setting [5] is: K. pneumoniae (NCTC 5055), 24 h at 37° C.

Values after ≈ are worked out from the molar mass of the structure shown. Square brackets hold non-standard residues; d marks the D form. Ends that are not written are not given here. * marks the point of attachment. For = O=C*

For the compound `CC1(C)S[C@@H]2[C@H](NC(=O)[C@H](N)c3ccccc3)C(=O)N2[C@H]1C(=O)O` [ampicillin, reference compound], the MIC in the data set on S. typhimurium (DA6192) (Salmonella enterica) turned out to be 8 µg/mL (≈ 22.9 µM); in the data set on E. coli (ATCC 15597) (Escherichia coli, ATCC15597, E. coli (ATCC 15597), 24 h at 37° C., read-out: Minimum Inhibitory Concentration) it was 24 µg/mL (≈ 68.7 µM); in the data set with M. luteus (ATCC 49732) (Micrococcus luteus, ATCC49732, M. luteus (ATCC 49732), 24 h at 37° C., read-out: Minimum Inhibitory Concentration), 1 µg/mL (≈ 2.86 µM); with S. aureus (ATCC 6538) (Staphylococcus aureus, ATCC6538, S. aureus (ATCC 6538), 24 h at 37° C., read-out: Minimum Inhibitory Concentration), 1 µg/mL (≈ 2.86 µM); in data set [1] (Klebsiella pneumoniae, NCTC5055, K. pneumoniae (NCTC 5055), 24 h at 37° C., read-out: Minimum Inhibitory Concentration), 5 µg/mL (≈ 14.3 µM); in data set [2] (Pseudomonas aeruginosa, ATCC27853, P. aeruginosa (ATCC 27853), 24 h at 37° C., read-out: Minimum Inhibitory Concentration), 8 µg/mL (≈ 22.9 µM). Further, the MIC in the data set on B. subtilis (ATCC 6633) (Bacillus subtilis, ATCC6633, B. subtilis (ATCC 6633), 24 h at 37° C., read-out: Minimum Inhibitory Concentration) worked out at 9 µg/mL (≈ 25.8 µM).
As to `CC[C@H](C)[C@H](NC(=O)CN)C(=O)NCC(=O)N[C@@H](C)C(=O)N[C@H](C(=O)N[C@@H](CC(C)C)C(=O)N[C@@H](CCCCN)C(=O)N[C@H](C(=O)N[C@@H](CC(C)C)C(=O)N[C@H](C(=O)N[C@H](C(=O)NCC(=O)N[C@@H](CC(C)C)C(=O)N1CCC[C@H]1C(=O)N[C@@H](C)C(=O)N[C@@H](CC(C)C)C(=O)N[C@H](C(=O)N[C@@H](CO)C(=O)N[C@@H](Cc1c[nH]c2ccccc12)C(=O)N[C@H](C(=O)N[C@@H](CCCCN)C(=O)N[C@@H](CCCNC(=N)N)C(=O)N[C@@H](CCCCN)C(=O)N[C@@H](CCCNC(=N)N)C(=O)N[C@@H](CCC(N)=O)C(=O)N[C@@H](CCC(N)=O)C(N)=O)[C@@H](C)CC)[C@@H](C)CC)[C@@H](C)O)[C@@H](C)O)C(C)C)C(C)C` [melittin], the “Minimum Inhibitory Concentration” value in [1] (setting [5]) was found to be 9 µg/mL.
For the compound “For-MAAFMKLIQFLATKGQKYVSLAWKHKGTILKWINAGQSFEWIYKQIKKLWA [NI01, epidermicin NI01]”, the “toxicity towards mammalian cells lines” value in the data set with mammalian cells lines was “negligible levels of toxicity”. In “Hemolysis assay”, the HC50 (as a rule, the concentration giving 50% haemolysis) at 1 h was 500 µg/mL. Moreover, in the data set on Human erythrocytes, the “hemolytic activity in words” value is given as “non-hemolytic”.
Take “For-[dM][dA][dA][dF][dM][dK][dL][dI][dQ][dF][dL][dA][dT][dK]G[dQ][dK][dY][dV][dS][dL][dA][dW][dK][dH][dK]G[dT][dI][dL][dK][dW][dI][dN][dA]G[dQ][dS][dF][dE][dW][dI][dY][dK][dQ][dI][dK][dK][dL][dW][dA] [NI01 D-form]”: in “Hemolysis assay”, the HC50 at 1 h was determined as 600 µg/mL. Moreover, in the data set on Human erythrocytes, the “hemolytic activity in words” value is given as “non-hemolytic”. In addition, in data set [3], the “mode of membrane disruption (AFM)” value is given as “strikingly similar pattern to that of the all-L form”.
KGTILKWINAGQSFEWIYKQIKKLWA-NH2 [α3α4] yielded an HC50 at 1 h in the data set “Hemolysis assay” of 150 µg/mL. Besides, the “mode of membrane disruption (AFM)” value in data set [3] is “mixed mode of membrane disruption”. In addition, the “antibacterial activity in words” value with S. aureus (ATCC 6538) is given as “equally effective”; in data set [2], “ineffective”.
Turning to “KYVSLAWKHKGTILKWINAGQSFEWIYKQIKKLWA-NH2 [α2α3α4]”, the HC50 at 1 h in “Hemolysis assay” was determined as 200 µg/mL.
Turning to MAAFMKLIQFLATKGQKYVSLAWK-NH2 [α1α2], in “Hemolysis assay”, the HC50 at 1 h was 150 µg/mL. Also, the “mode of membrane disruption (AFM)” value in data set [3] is listed as “extended petal-like pores”. For the same compound, the “antibacterial activity in words” value in the data set on S. aureus (ATCC 6538) is “equally effective”; in data set [2], “ineffective”.
On to “MAAFMRLIQFLATRGQRYVSLAWRRRGTILRWINAGQSFEWIYRQIRRLWA-NH2 [NI01 R-mutant]”, for which, in the data set “Hemolysis assay”, the HC50 at 1 h was 250 µg/mL. For the same compound, the “hemolytic activity in words” value with Human erythrocytes was “drastically increased”. Besides, the “mode of membrane disruption (AFM)” value in data set [3] is listed as “exclusively thinning patches”. Besides, the “Minimum Inhibitory Concentration” value is 9 µg/mL in the data set with E. coli (ATCC 15597) (ATCC 15597, 24 h); 2 µg/mL with M. luteus (ATCC 49732) (ATCC 49732, 24 h); 5 µg/mL in the data set with S. aureus (ATCC 6538) (ATCC 6538, 24 h); 18 µg/mL in data set [1] (NCTC 5055, 24 h); more than 300 µg/mL in [2] (ATCC 27853, 24 h); 18 µg/mL in the data set with B. subtilis (ATCC 6633) (ATCC 6633, 24 h).
As for QKYVSLAWKHKGTILKWINA-NH2 [α2α3], the “concentration showing no hemolytic activity” value with Human erythrocytes is more than 600 µg/mL.
Take aureocin A53: in data set [3], the “mode of membrane disruption (AFM)” value is “membrane thinning patches and transmembrane lesions and pores”. Besides, the “transition midpoint (TM) of thermal unfolding” value in data set [4] is approximately 54 °C.
polymyxin B [reference compound]: the “HD30, median hemolytic doses to achieve 50% lysis” value in the data set on Human erythrocytes (Human erythrocytes, 1 h at room temperature) was 350 µg/mL. The “Minimum Inhibitory Concentration” value in the data set with S. typhimurium (DA6192) was 2 µg/mL; in the data set on E. coli (ATCC 15597) (E. coli (ATCC 15597), 24 h at 37° C.), 2 µg/mL; in the data set with M. luteus (ATCC 49732) (M. luteus (ATCC 49732), 24 h at 37° C.) it was 2 µg/mL; in the data set on S. aureus (ATCC 6538) (S. aureus (ATCC 6538), 24 h at 37° C.), 32 µg/mL; in data set [1] (setting [5]), 4 µg/mL; in data set [2] (P. aeruginosa (ATCC 27853), 24 h at 37° C.), 2 µg/mL. The “Minimum Inhibitory Concentration” value with B. subtilis (ATCC 6633) (B. subtilis (ATCC 6633), 24 h at 37° C.) was 4 µg/mL.
